Measurements as given in US20130184257A1, “PIPERIDINYL-SUBSTITUTED LACTAMS AS GPR119 MODULATORS” (priority 2010, published 2013).

Tested on: modified version of the GPR119 receptor (94% identity to human receptor) stably expressed in HEK-293 cells
Test: cAMP Production Assay (LANCE cAMP kit, TR-FRET)
Type: cell-based
Conditions: for cAMP production in HEK-293 cells: HEK-293 cells expressing modified GPR119, test compounds 0.2 nM to 10 μM, one-hour incubation at ambient temperature; for Fold over baseline: increase in cAMP relative to basal levels, 1.5-fold or greater = agonist activity
Procedure: The assay utilized HEK-293 cells that stably express a modified version of the GPR119 receptor (94% identity to human receptor), under the control of a CMV promoter containing a tet-on element for tetracycline-inducible expression. GPR119 agonist-induced cyclic AMP (cAMP) production was measured in this cell line using the LANCE cAMP kit (Perkin Elmer, Waltham, Mass.). To generate a working stock of cells for the assay, cells were treated overnight with 1 μg/mL doxycycline at 37° C. in the presence of 5% CO2 to induce receptor expression. Cells were then harvested by enzymatic dissociation with 0.05% trypsin, resuspended in freezing medium (DMEM growth medium with 10% each of fetal bovine serum and DMSO), aliquoted and frozen at −80° C. On the day of the assay, frozen cells were thawed, washed 1× in PBS and resuspended in Hank's buffered salt solution (HBSS) containing 5 mM HEPES, 0.1% BSA and Alexa Fluor 647-conjugated anti-cAMP antibody (diluted 1:100). The cell suspension was then transferred to a Proxiplate Plus white 384-well assay plate (Perkin-Elmer) at 2000 cells/well. Test compounds at final concentrations ranging from 0.2 nM to 10 μM were added to the assay plate, followed by a one-hour incubation at ambient temperature (volume=10 μL/well). DMSO concentration was held constant at 0.5%. After incubation with test compounds, 10 μL of a detergent buffer containing a biotinylated cAMP/Europium-conjugated streptavidin complex (Europium-labeled cAMP tracer) were added to each well on the assay plate, followed by a 2-hour incubation at ambient temperature. During this incubation cAMP released from lysed cells competes with the Europium-labeled cAMP tracer for binding to the Alexa Fluor 647-conjugated antibody. […] Cellular cAMP levels were then determined by interpolation of raw signal data using a cAMP standard curve. Compounds were determined to have agonist activity if they stimulated a 1.5-fold or greater increase in cAMP relative to basal levels.

Row | SMILES | cAMP production in HEK-293 cells | Fold over baseline
1 | CC(C)c1nc(N2CCC(N3CC[C@H](Oc4cc(F)c(S(C)(=O)=O)cc4F)C3=O)CC2)no1 [Example 19, (S)-3-(2,5-difluoro-4-(methylsulfonyl)phenoxy)-1-(1-(5-isopropyl-1,2,4-oxadiazol-3-yl)piperidin-4-yl)pyrrolidin-2-one] | 24.9 nmol | 4.1
2 | CS(=O)(=O)c1ccc(O[C@H]2CCN(C3CCN(c4noc(C(F)(F)F)n4)CC3)C2=O)c(F)c1 [Example 24, (S)-3-(2-fluoro-4-(methylsulfonyl)phenoxy)-1-(1-(5-(trifluoromethyl)-1,2,4-oxadiazol-3-yl)piperidin-4-yl)pyrrolidin-2-one] | 81.6 nmol | 4.4
3 | CS(=O)(=O)c1cc(F)c(N[C@H]2CCCCN(C3CCN(c4noc(C(F)(F)F)n4)CC3)C2=O)cc1F [Example 53, (S)-3-(2,5-difluoro-4-(methylsulfonyl)phenylamino)-1-(1-(5-(trifluoromethyl)-1,2,4-oxadiazol-3-yl)piperidin-4-yl)azepan-2-one] | 11.8 nmol | 4.7
4 | CC(C)c1noc(N2CCC(N3CC[C@@H](Oc4cc(F)c(S(C)(=O)=O)cc4F)C3=O)CC2)n1 [Example 4, (R)-3-(2,5-difluoro-4-(methylsulfonyl)phenoxy)-1-(1-(3-isopropyl-1,2,4-oxadiazol-5-yl)piperidin-4-yl)pyrrolidin-2-one] | 18.7 nmol | 3.9
5 | CS(=O)(=O)c1cc(F)c(O[C@@H]2CCN(C3CCN(c4noc(C(F)(F)F)n4)CC3)C2=O)cc1F (single isomer, unassigned) [Example 66] | 8.7 nmol | 2.7
6 | CS(=O)(=O)c1ccc(N[C@H]2CCN(C3CCN(c4noc(C5(C(F)(F)F)CC5)n4)CC3)C2=O)c(F)c1 [Example 46, (S)-3-(2-fluoro-4-(methylsulfonyl)-phenylamino)-1-(1-(5-(1-(trifluoromethyl)-cyclopropyl)-1,2,4-oxadiazol-3-yl)piperidin-4-yl)pyrrolidin-2-one] | 8.2 nmol | 2.7
7 | CS(=O)(=O)c1ccc(N[C@H]2CCN(C3CCN(c4noc(C(F)(F)F)n4)CC3)C2=O)c(F)c1 [Example 16, (S)-3-(2-fluoro-4-(methylsulfonyl)phenylamino)-1-(1-(5-(trifluoromethyl)-1,2,4-oxadiazol-3-yl)piperidin-4-yl)pyrrolidin-2-one] | 17.0 nmol | 4.3
8 | CC(F)(F)c1nc(N2CCC(N3CC[C@H](Oc4cc(F)c(S(C)(=O)=O)cc4F)C3=O)CC2)no1 [Example 52, (S)-3-(2,5-difluoro-4-(methylsulfonyl)phenoxy)-1-(1-(5-(1,1-difluoroethyl)-1,2,4-oxadiazol-3-yl)piperidin-4-yl)pyrrolidin-2-one] | 15.5 nmol | 5.8
9 | CC(C)(C)c1noc(N2CCC(N3CC[C@H](Oc4cc(F)c(S(C)(=O)=O)cc4F)C3=O)CC2)n1 [Example 3, (S)-1-(1-(3-tert-butyl-1,2,4-oxadiazol-5-yl)piperidin-4-yl)-3-(2,5-difluoro-4-(methylsulfonyl)phenoxy)pyrrolidin-2-one] | 21.7 nmol | 3.3
10 | CCS(=O)(=O)c1ccc(N[C@H]2CCN(C3CCN(c4noc(C(F)(F)F)n4)CC3)C2=O)c(F)c1 [Example 34, (S)-3-(4-(ethylsulfonyl)-2-fluorophenylamino)-1-(1-(5-(trifluoromethyl)-1,2,4-oxadiazol-3-yl)piperidin-4-yl)pyrrolidin-2-one] | 7.3 nmol | 2.8
11 | CS(=O)(=O)c1ccc(N[C@H]2CCN(C3CCN(c4noc(CC(F)(F)F)n4)CC3)C2=O)c(F)c1 [Example 36, (S)-3-(2-fluoro-4-(methylsulfonyl)phenylamino)-1-(1-(5-(2,2,2-trifluoroethyl)-1,2,4-oxadiazol-3-yl)piperidin-4-yl)pyrrolidin-2-one] | 9.9 nmol | 4.3
12 | CS(=O)(=O)c1cc(F)c(O[C@H]2CCN(C3CCN(c4noc(C(F)(F)F)n4)CC3)C2=O)cc1F [Example 27, (S)-3-(2,5-difluoro-4-(methylsulfonyl)phenoxy)-1-(1-(5-(trifluoromethyl)-1,2,4-oxadiazol-3-yl)piperidin-4-yl)pyrrolidin-2-one] | 98.9 nmol | 5.1
13 | CS(=O)(=O)c1cc(F)c(O[C@@H]2CCCN(C3CCN(c4noc(C(F)(F)F)n4)CC3)C2=O)cc1F [Example 67, (R)-3-(2,5-difluoro-4-(methylsulfonyl)phenoxy)-1′-(5-(trifluoromethyl)-1,2,4-oxadiazol-3-yl)-[1,4′-bipiperidin]-2-one] | 43.6 nmol | 3.6
14 | CCc1noc(N2CCC(N3CC[C@H](Oc4ccc(S(C)(=O)=O)cc4F)C3=O)CC2)n1 [Example 6, (S)-1-(1-(3-ethyl-1,2,4-oxadiazol-5-yl)piperidin-4-yl)-3-(2-fluoro-4-(methylsulfonyl)phenoxy)pyrrolidin-2-one] | 22.5 nmol | 4.9
15 | CC(C)c1noc(N2CCC(N3CC[C@H](Nc4ccc(S(C)(=O)=O)cc4F)C3=O)CC2)n1 [Example 8, (S)-3-(2-fluoro-4-(methylsulfonyl)phenylamino)-1-(1-(3-isopropyl-1,2,4-oxadiazol-5-yl)piperidin-4-yl)pyrrolidin-2-one] | 25.0 nmol | 4.9
16 | CC(F)(F)c1noc(N2CCC(N3CCC[C@H](Nc4cc(F)c(S(C)(=O)=O)cc4F)C3=O)CC2)n1 [Example 61, (S)-3-((2,5-difluoro-4-(methylsulfonyl)phenyl)amino)-1′-(3-(1,1-difluoroethyl)-1,2,4-oxadiazol-5-yl)-[1,4′-bipiperidin]-2-one] | 13.6 nmol | 2.2
17 | CS(=O)(=O)c1cc(F)c(N[C@H]2CCN(C3CCN(c4noc(C(F)F)n4)CC3)C2=O)cc1F [Example 30, (S)-3-(2,5-difluoro-4-(methylsulfonyl)phenylamino)-1-(1-(5-(difluoromethyl)-1,2,4-oxadiazol-3-yl)piperidin-4-yl)pyrrolidin-2-one] | 7.5 nmol | 3.1
18 | CC(F)(F)c1nc(N2CCC(N3CCC[C@H](Nc4c(F)cc(S(C)(=O)=O)cc4F)C3=O)CC2)no1 [Example 50, (S)-3-(2,6-difluoro-4-(methylsulfonyl)phenylamino)-1′-(5-(1,1-difluoroethyl)-1,2,4-oxadiazol-3-yl)-1,4′-bipiperidin-2-one] | 3.9 nmol | 1.7
19 | CS(=O)(=O)c1cc(F)c(O[C@H]2CCCN(C3CCN(c4noc(C(F)(F)F)n4)CC3)C2=O)cc1F [Example 54, (S)-3-(2,5-difluoro-4-(methylsulfonyl)phenoxy)-1′-(5-(trifluoromethyl)-1,2,4-oxadiazol-3-yl)-[1,4′-bipiperidin]-2-one] | 19.9 nmol | 4.9
20 | CS(=O)(=O)c1cc(F)c(N[C@H]2CCN(C3CCN(c4noc(C(F)F)n4)CC3)C2=O)c(F)c1 [Example 31, (S)-3-(2,6-difluoro-4-(methylsulfonyl)phenylamino)-1-(1-(5-(difluoromethyl)-1,2,4-oxadiazol-3-yl)piperidin-4-yl)pyrrolidin-2-one] | 4.9 nmol | 2.3
21 | CC(C)c1nc(N2CCC(N3CCC[C@H](Nc4c(F)cc(S(C)(=O)=O)cc4F)C3=O)CC2)no1 [Example 12, (S)-3-(2,6-difluoro-4-(methylsulfonyl)phenylamino)-1′-(5-isopropyl-1,2,4-oxadiazol-3-yl)-1,4′-bipiperidin-2-one] | 16.1 nmol | 3.4
22 | CS(=O)(=O)c1ccc(N[C@H]2CCN(C3CCN(c4noc(-c5ccccc5)n4)CC3)C2=O)c(F)c1 [Example 44, (S)-3-(2-fluoro-4-(methylsulfonyl)-phenylamino)-1-(1-(5-phenyl-1,2,4-oxadiazol-3-yl)piperidin-4-yl)pyrrolidin-2-one] | 19.5 nmol | 6.8
23 | CS(=O)(=O)c1cc(F)c(N[C@H]2CCN(C3CCN(c4noc(C(F)(F)F)n4)CC3)C2=O)cc1F [Example 23, (S)-3-(2,5-difluoro-4-(methylsulfonyl)phenylamino)-1-(1-(5-(trifluoromethyl)-1,2,4-oxadiazol-3-yl)piperidin-4-yl)pyrrolidin-2-one] | 19.2 nmol | 3.6
